Measured values: ChEMBL document CHEMBL1143211, “Inhibitors of proteases and amide hydrolases that employ an alpha-ketoheterocycle as a key enabling functionality” (Bioorg Med Chem, 2008)
Each block holds one molecule with its values, some of them ahead of it.

Tests used:
[1] = biological target: T1, Fatty-acid amide hydrolase 1 (Rattus norvegicus, UniProt P97612)
T1 sequence (P97612 whole entry): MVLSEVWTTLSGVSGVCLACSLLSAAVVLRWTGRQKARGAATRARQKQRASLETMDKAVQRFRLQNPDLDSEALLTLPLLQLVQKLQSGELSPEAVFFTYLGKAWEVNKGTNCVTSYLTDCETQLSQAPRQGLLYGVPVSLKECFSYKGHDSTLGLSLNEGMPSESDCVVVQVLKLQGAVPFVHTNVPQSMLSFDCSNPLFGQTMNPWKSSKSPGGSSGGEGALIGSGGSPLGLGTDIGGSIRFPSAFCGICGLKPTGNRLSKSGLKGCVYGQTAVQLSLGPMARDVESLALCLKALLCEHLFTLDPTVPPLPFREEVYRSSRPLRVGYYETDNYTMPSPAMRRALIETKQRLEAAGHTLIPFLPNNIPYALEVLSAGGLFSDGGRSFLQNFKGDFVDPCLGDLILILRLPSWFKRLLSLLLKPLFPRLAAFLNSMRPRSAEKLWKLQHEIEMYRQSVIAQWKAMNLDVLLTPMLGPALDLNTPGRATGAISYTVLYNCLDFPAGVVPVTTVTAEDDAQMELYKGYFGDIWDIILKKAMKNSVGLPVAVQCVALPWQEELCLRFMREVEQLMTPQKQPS

Trypsin = Trypsin (Homo sapiens, UniProt P07477+P07478+P35030); experiment: Inhibition of human trypsin; format: protein assay
Prothrombin = Prothrombin (Homo sapiens, UniProt P00734); experiment: Inhibition of human alpha-thrombin
Coagulation factor X = Coagulation factor X (Homo sapiens, UniProt P00742); experiment: Inhibition of human factor 10a
Coagulation factor X, sequence (P00742 41-179 limits assumed): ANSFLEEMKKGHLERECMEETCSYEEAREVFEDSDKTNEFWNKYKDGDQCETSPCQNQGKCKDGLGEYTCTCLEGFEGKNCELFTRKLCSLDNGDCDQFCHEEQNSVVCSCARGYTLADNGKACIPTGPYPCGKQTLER
Coagulation factor X, sequence (P00742 235-488 limits assumed): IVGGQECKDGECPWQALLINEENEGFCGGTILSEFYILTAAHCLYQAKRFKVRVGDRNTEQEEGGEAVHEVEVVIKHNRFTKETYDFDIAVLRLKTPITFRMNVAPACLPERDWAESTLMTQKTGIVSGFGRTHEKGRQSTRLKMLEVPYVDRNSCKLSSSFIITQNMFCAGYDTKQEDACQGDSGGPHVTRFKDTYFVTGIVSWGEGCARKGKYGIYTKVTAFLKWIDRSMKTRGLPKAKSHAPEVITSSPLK

Structure (SMILES): O=C(CCc1ccc(-c2ccccc2)cc1)c1nc(-c2ccccn2)co1
- Ki [1]: 0.75 nM

Structure (SMILES): N[C@H]1CC[C@H]([C@H](NC(=O)[C@@H]2CC[C@H]3CN(S(=O)(=O)Cc4ccccc4)CC(=O)N32)C(=O)c2nccs2)CC1
- Ki (Trypsin): 8000 nM
- Ki (Prothrombin): 3.2 nM

Structure (SMILES): NC(N)=NCCC[C@H](NC(=O)[C@@H]1CC[C@H]2CN(C(=O)[C@H](N)Cc3cc4ccccc4[nH]3)CC(=O)N21)C(=O)c1nccs1
- Ki (Prothrombin): 1 nM

Structure (SMILES): CCCCCCCC/C=C\CCCCCCCC(=O)c1ncco1
- Ki [1]: 17 nM

Structure (SMILES): C[C@H]1C(=O)N(CCCc2ccccc2)CC(=O)N1CC(=O)N[C@@H](C[C@@H]1CCCN(C(=N)N)C1)C(=O)c1nccs1
- IC50 (Trypsin): 24000 nM

Structure (SMILES): C[C@]12C[C@@H](Cc3ccc4nc(C(F)(F)F)ccc4c3)CC(=O)N1[C@H](C(=O)N[C@@H](CCCN=C(N)N)C(=O)c1nccs1)CS2
- Ki (Prothrombin): 10 nM

Structure (SMILES): N=C(N)N1CCC[C@@H](C[C@H](NC(=O)[C@@H]2CC[C@H]3CN(C(=O)CCc4ccccc4)CC(=O)N32)C(=O)c2nc3ccccc3s2)C1
- IC50 (Trypsin): 590 nM
- IC50 (Prothrombin): < 1 nM

Structure (SMILES): CCCCCCCC(=O)c1nc2ncccc2o1
- Ki [1]: 0.69 nM

Structure (SMILES): CCCCCCCCCC/C=C\CCCCCCC(=O)c1ncc(-c2cccnn2)o1
- Ki [1]: 14 nM

Structure (SMILES): C[C@@H]1C(=O)N(CCCc2ccccc2)CC(=O)N1CC(=O)N[C@@H](C[C@@H]1CCCN(C(=N)N)C1)C(=O)c1nccs1
- IC50 (Trypsin): 340 nM

Structure (SMILES): CCCCCCCC/C=C\CCCCCCCC(=O)c1nnn(C)n1
- Ki [1]: 65 nM

Structure (SMILES): N=C(N)NCCC[C@H](NC(=O)[C@@H]1CC[C@H]2CN(C(=O)CCc3ccccc3)CC(=O)N21)C(=O)c1nc2ccccc2s1
- IC50 (Prothrombin): < 1 nM

Structure (SMILES): CCCCCCCC/C=C\CCCCCCCC(=O)c1nccs1
- Ki [1]: > 100000 nM

Structure (SMILES): CCCCCCCC/C=C\CCCCCCCC(=O)c1nc2ccncc2o1
- Ki [1]: 3.7 nM

Structure (SMILES): COC(=O)n1nnnc1C(=O)[C@@H](NC(=O)[C@@H]1CC[C@H]2CN(S(=O)(=O)Cc3ccccc3)CC(=O)N21)[C@H]1CC[C@H](N)CC1
- Ki (Trypsin): > 400000 nM
- Ki (Prothrombin): 2600 nM

Structure (SMILES): CCCCC/C=C\C/C=C\C/C=C\C/C=C\CCCC(=O)c1nc2ncccc2o1
- Ki [1]: 1 nM

Structure (SMILES): Cc1nc(C(=O)[C@@H](NC(=O)[C@@H]2CC[C@H]3CN(S(=O)(=O)Cc4ccccc4)CC(=O)N32)[C@H]2CC[C@H](N)CC2)sc1C(=O)O
- Ki (Trypsin): 65000 nM
- Ki (Prothrombin): 80 nM

Structure (SMILES): CCCCCCCC/C=C\CCCCCCCC(=O)c1nc2ccccc2s1
- Ki [1]: > 100000 nM

Structure (SMILES): C[C@]12C[C@@H](Cc3ccccc3)CC(=O)N1[C@H](C(=O)N[C@@H](CCCNC(=N)N)C(=O)c1nccs1)CS2
- Ki (Prothrombin): 16 nM

Structure (SMILES): C[C@]12C[C@@H](Cc3ccccc3)CC(=O)N1[C@H](C(=O)N[C@@H](CCCN=C(N)N)C(=O)c1nc3ccccc3s1)CS2
- Ki (Prothrombin): 18 nM

Structure (SMILES): N[C@H]1CC[C@H]([C@H](NC(=O)[C@@H]2CC[C@H]3CN(S(=O)(=O)Cc4ccccc4)CC(=O)N32)C(=O)c2nc3ccccc3s2)CC1
- Ki (Trypsin): 1400 nM
- Ki (Prothrombin): 0.7 nM

Structure (SMILES): C[C@]12C[C@@H](Cc3ccc4nc(C(F)(F)F)ccc4c3)CC(=O)N1[C@H](C(=O)N[C@@H](CCCNC(=N)N)C(=O)c1nc3ccccc3s1)CS2
- Ki (Prothrombin): 18 nM

More lines, now with the values ahead:

- IC50 (Prothrombin): 38 nM
Structure (SMILES): NC(N)=NCCC[C@H](NC(=O)CN1CCCC[C@@H](NS(=O)(=O)Cc2ccccc2)C1=O)C(=O)c1nccs1

- IC50 (Prothrombin): 510 nM
- IC50 (Coagulation factor X): 0.9 nM
Structure (SMILES): N=C(N)NCCC[C@H](NC(=O)CN1CCN(S(=O)(=O)Cc2ccccc2)[C@H](Cc2ccccc2)C1=O)C(=O)c1nccs1

- IC50 (Prothrombin): 11000 nM
- IC50 (Coagulation factor X): 17 nM
Structure (SMILES): NC(N)=NCCC[C@H](NC(=O)CN1CCN(C(=O)Cc2ccccc2)CC1=O)C(=O)c1nccs1

- IC50 (Coagulation factor X): 2 nM
Structure (SMILES): N=C(N)NCCC[C@H](NC(=O)CNC(=O)[C@@H](Cc1ccccc1)NS(=O)(=O)Cc1ccccc1)C(=O)c1nccs1

- IC50 (Trypsin): 9100 nM
Structure (SMILES): N=C(N)N1CCC[C@@H](C[C@H](NC(=O)CN2C(=O)CN(CCCc3ccccc3)C(=O)[C@H]2Cc2ccccc2)C(=O)c2nccs2)C1

- IC50 (Coagulation factor X): 2 nM
Structure (SMILES): N=C(N)NCCC[C@H](NC(=O)CNC(=O)[C@@H](Cc1c[nH]c2ccccc12)NS(=O)(=O)Cc1ccccc1)C(=O)c1nccs1

- IC50 (Prothrombin): 420 nM
- IC50 (Coagulation factor X): 8 nM
Structure (SMILES): NC(N)=NCCC[C@H](NC(=O)CN1CCN(S(=O)(=O)c2ccccc2)CC1=O)C(=O)c1nccs1

- IC50 (Coagulation factor X): 8 nM
Structure (SMILES): N=C(N)NCCC[C@@H](N)C(=O)NCC(=O)N[C@@H](CCCNC(=N)N)C(=O)c1nccs1

- IC50 (Prothrombin): 2000 nM
- IC50 (Coagulation factor X): 59 nM
Structure (SMILES): N=C(N)NCCC[C@H](NC(=O)CN1CCN(S(=O)(=O)Cc2ccccc2)[C@@H](Cc2ccccc2)C1=O)C(=O)c1nccs1

- IC50 (Trypsin): > 180000 nM
- IC50 (Coagulation factor X): 39 nM
Structure (SMILES): N=C(N)NCCC[C@@H](NS(=O)(=O)Cc1ccccc1)C(=O)NCC(=O)N[C@@H](Cc1c[nH]c2ccccc12)C(=O)c1nccs1

- IC50 (Trypsin): 2.3 nM
- IC50 (Coagulation factor X): 110 nM
Structure (SMILES): CC(C)(C)CC(=O)N[C@H](Cc1ccccc1)C(=O)N1CCC[C@H]1C(=O)N[C@@H](CCCNC(=N)N)C(=O)c1nc2ccccc2o1.O=C(O)C(F)(F)F
